Tests used:
Assay type in all cases: in vivo
Spodoptera litura = Spodoptera litura diet incorporation method; conditions: third instar larvae, dead and moribund combined, 96 h after release
Summary of the method: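 Compound milled to <2 μm average particle size in surfactant, dispersed in water (500 ppm stock dispersion), then mixed into semi-synthetic diet at ~50° C. One starved third-instar larva per diet cell, 25° C, 70% RH; percent mortality (dead plus moribund) scored at 96 h.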

Helicoverpa armigera = Helicoverpa armigera diet incorporation method; conditions: third instar larvae, dead and moribund combined, 96 h after release
Summary of the method: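 Third-instar larvae, starved, were placed singly on diet pieces containing test dispersion (bead-milled in surfactant, particles under 2 μm, 500 ppm stock then diluted). Trays kept at 25° C. and 70% RH; mortality counted at 96 h, moribund larvae counted with dead.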

Plutella xylostella = assay: whole plant or invertebrate; conditions: foliar, cabbage leaf dip, second instar larvae, dead and moribund combined, 72 h after release
Summary of the method: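 Leaf-dip bioassay: second-instar larvae, singly, fed on cabbage leaves dipped 10 s in test dispersion (bead-milled, diluted with 0.01% Triton-X to test concentration) and dried 20 min. Held at 25 °C, 70% RH; % mortality counts dead and moribund at 72 h.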

Measured: mortality at 300 ppm

C#CCNC(=O)c1c(NC(=O)c2cc(C(F)(F)F)nn2-c2ncccc2Cl)c(C)cc2ccnn12 [Compound 108, 6-(1-(3-chloropyridin-2-yl)-3-(trifluoromethyl)-1H-pyrazole-5-carboxamido)-5-methyl-N-(prop-2-yn-1-yl)pyrazolo[1,5-a]pyridine-7-carboxamide]
> 70%: all assays above

Cc1cc2ccnn2c(C(=O)NCC(F)(F)F)c1NC(=O)c1cc(C(F)(F)F)nn1-c1ncccc1Cl [Compound 109, 6-(1-(3-chloropyridin-2-yl)-3-(trifluoromethyl)-1H-pyrazole-5-carboxamido)-5-methyl-N-(2,2,2-trifluoroethyl)pyrazolo[1,5-a]pyridine-7-carboxamide]
> 70%: all assays above

COc1cc(C(=O)Nc2c(Br)cc3ccnn3c2C(=O)NC(C)(C)C)n(-c2ncccc2Cl)n1 [Compound 119, 5-bromo-N-(tert-butyl)-6-(1-(3-chloropyridin-2-yl)-3-methoxy-1H-pyrazole-5-carboxamido)pyrazolo[1,5-a]pyridine-7-carboxamide]
> 70%: all assays above

Cc1cc2ccnn2c(C(=O)NC(C)C2CC2)c1NC(=O)c1cc(C(F)(F)F)nn1-c1ncccc1Cl (stereo not drawn) [Compound 126, 6-(1-(3-chloropyridin-2-yl)-3-(trifluoromethyl)-1H-pyrazole-5-carboxamido)-N-(1-cyclopropylethyl)-5-methylpyrazolo[1,5-a]pyridine-7-carboxamide]
> 70%: all assays above

COc1cc(C(=O)Nc2c(Cl)cc3ccnn3c2C(=O)NC2CC2)n(-c2ncccc2Cl)n1 [Compound 132, 5-chloro-6-(1-(3-chloropyridin-2-yl)-3-methoxy-1H-pyrazole-5-carboxamido)-N-cyclopropylpyrazolo[1,5-a]pyridine-7-carboxamide]
> 70%: all assays above

COc1cc(C(=O)Nc2c(Cl)cc3ccnn3c2C(=O)NC(C)C)n(-c2ncccc2Cl)n1 [Compound 133, 5-chloro-6-(1-(3-chloropyridin-2-yl)-3-methoxy-1H-pyrazole-5-carboxamido)-N-isopropylpyrazolo[1,5-a]pyridine-7-carboxamide]
> 70%: all assays above

CCNC(=O)c1c(NC(=O)c2cc(OC)nn2-c2ncccc2Cl)c(Cl)cc2ccnn12 [Compound 134, 5-chloro-6-(1-(3-chloropyridin-2-yl)-3-methoxy-1H-pyrazole-5-carboxamido)-N-ethylpyrazolo[1,5-a]pyridine-7-carboxamide]
> 70%: all assays above

CNC(=O)c1c(NC(=O)c2cc(OC)nn2-c2ncccc2Cl)c(Cl)cc2ccnn12 [Compound 135, 5-chloro-6-(1-(3-chloropyridin-2-yl)-3-methoxy-1H-pyrazole-5-carboxamido)-N-methylpyrazolo[1,5-a]pyridine-7-carboxamide]
> 70%: all assays above

COc1cc(C(=O)Nc2c(Cl)cc3ccnn3c2C(=O)NCC(F)(F)F)n(-c2ncccc2Cl)n1 [Compound 137, 5-chloro-6-(1-(3-chloropyridin-2-yl)-3-methoxy-1H-pyrazole-5-carboxamido)-N-(2,2,2-trifluoroethyl)pyrazolo[1,5-a]pyridine-7-carboxamide]
> 70%: all assays above

CC(C)NC(=O)c1c(NC(=O)c2cc(Br)nn2-c2ncccc2Cl)c(Cl)cc2ccnn12 [Compound 138, 6-(3-bromo-1-(3-chloropyridin-2-yl)-1H-pyrazole-5-carboxamido)-5-chloro-N-isopropylpyrazolo[1,5-a]pyridine-7-carboxamide]
> 70%: all assays above

— patent US12024510B2, “Pyrazolopyridine-diamides, their use as insecticide and processes for preparing the same” (PI INDUSTRIES LTD., priority 2017, dated 2024)
